Laboratory results taken from ChEMBL document CHEMBL1201862, “PubChem BioAssay data set” (2004).
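Results reflect a 48-hour exposure of cells in 96-well plates to compound at five concentrations. The concentration for 50% growth inhibition is given as GI50.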 Calls of active or inactive are those of the source. No stated cut-off is given here; in the data, active = GI50 up to about 1.1 µM and inactive = higher.

What was measured:
Experiment in all cases: DTP human tumour cell line panel, 48 h
A498 = test system: A498
COLO 205 = test system: COLO 205
HCC 2998 = test system: HCC 2998
HOP-92 = test system: HOP-92
IGROV-1 = test system: IGROV-1
M14 = test system: M14
MCF7 = test system: MCF7
MDA-MB-231 = test system: MDA-MB-231
MDA-N = test system: MDA-N
Malme-3M = test system: Malme-3M
OVCAR-3 = test system: OVCAR-3
OVCAR-8 = test system: OVCAR-8
PC-3 = test system: PC-3
RPMI-8226 = test system: RPMI-8226
SF-268 = test system: SF-268
SF-295 = test system: SF-295
SK-MEL-28 = test system: SK-MEL-28
SK-MEL-2 = test system: SK-MEL-2
SR = test system: SR

Measured: GI50

C#C[C@]1(O)CC[C@H]2[C@@H]3CCC4=C/C(=N/OCCN(C)C)CC[C@]4(C)[C@H]3CC[C@@]21C
inactive: A498 41.4 µM | COLO 205 26.7 µM | HCC 2998 41 µM | HOP-92 52.8 µM | IGROV-1 50.7 µM | M14 15 µM | MCF7 25.1 µM | MDA-MB-231 39.9 µM | MDA-N 11.1 µM | Malme-3M 22.1 µM | OVCAR-3 22 µM | OVCAR-8 49.7 µM | PC-3 27.7 µM | RPMI-8226 28.4 µM | SF-268 49.5 µM | SF-295 6.97 µM | SK-MEL-28 51.5 µM | SK-MEL-2 31.7 µM | SR 12.1 µM

CN(C)c1nc(-c2ccccc2)c(C(=O)c2c[nH]c3ccccc23)s1
inactive: A498 9.98 µM | COLO 205 4.78 µM | HCC 2998 6.55 µM | IGROV-1 3.89 µM | M14 4.59 µM | MCF7 4.48 µM | MDA-MB-231 14.5 µM | MDA-N 1.93 µM | Malme-3M 11.2 µM | OVCAR-3 5.04 µM | OVCAR-8 9.62 µM | PC-3 > 31.3 µM | RPMI-8226 3.16 µM | SF-268 9.2 µM | SF-295 3.92 µM | SK-MEL-28 > 35.2 µM | SR 1.54 µM

C[C@]12CCC3c4ccc(O)cc4CC[C@H]3C1CC(=O)NC2=O (some centres not stated)
inactive: A498 > 10 µM | COLO 205 > 10 µM | HCC 2998 > 10 µM | HOP-92 > 10 µM | IGROV-1 > 10 µM | M14 > 10 µM | MCF7 > 10 µM | MDA-MB-231 > 10 µM | MDA-N > 10 µM | Malme-3M > 10 µM | OVCAR-3 > 10 µM | OVCAR-8 > 10 µM | PC-3 > 10 µM | RPMI-8226 > 10 µM | SF-268 > 10 µM | SF-295 > 10 µM | SK-MEL-28 > 10 µM | SK-MEL-2 > 10 µM | SR > 10 µM

C/C(=C\[Si](C)(C)c1ccco1)C(C)(O)[C@H](C)O (some centres not stated)
inactive: A498 76 µM | COLO 205 36.5 µM | HCC 2998 34.8 µM | HOP-92 46.1 µM | IGROV-1 > 100 µM | M14 > 100 µM | MCF7 32.9 µM | MDA-MB-231 > 100 µM | MDA-N 54.6 µM | Malme-3M 52.8 µM | OVCAR-3 54.5 µM | OVCAR-8 55.1 µM | PC-3 38.9 µM | RPMI-8226 30.8 µM | SF-268 90.2 µM | SF-295 49.4 µM | SK-MEL-28 > 100 µM | SK-MEL-2 91.6 µM | SR 33.8 µM

C=C1C(=O)OC2C1C(OC(=O)/C(C)=C/C)CC(O)(CCl)C1C(O)C=C(C)C21O (configuration not stated)
inactive: A498 23.6 µM | COLO 205 4.58 µM | HCC 2998 12.6 µM | HOP-92 8.93 µM | IGROV-1 14.9 µM | M14 11.4 µM | MCF7 4.52 µM | MDA-MB-231 15.7 µM | MDA-N 14.9 µM | Malme-3M 2.22 µM | OVCAR-3 11.9 µM | OVCAR-8 10.9 µM | PC-3 21.7 µM | RPMI-8226 5.68 µM | SF-268 22.9 µM | SF-295 53 µM | SK-MEL-28 13.3 µM | SK-MEL-2 21 µM | SR 3.94 µM

O=[N+]([O-])c1ccc(Sc2c3ccccc3nc3ccccc23)cn1
inactive: A498 > 100 µM | COLO 205 3.36 µM | HCC 2998 45.6 µM | HOP-92 4.28 µM | IGROV-1 32.4 µM | M14 8.97 µM | MCF7 4.48 µM | MDA-MB-231 18 µM | MDA-N 14.3 µM | Malme-3M 3.24 µM | OVCAR-3 8.11 µM | OVCAR-8 15.3 µM | PC-3 15.5 µM | SF-268 20.8 µM | SF-295 > 100 µM | SK-MEL-28 24.7 µM | SK-MEL-2 25.4 µM | SR 3.12 µM

COc1ccc2c3c1O[C@H]1[C@@H](O)CC[C@@]4(O)[C@@H](C2)N(C)CC[C@]314
inactive: A498 > 100 µM | COLO 205 > 100 µM | HOP-92 > 100 µM | IGROV-1 > 100 µM | M14 > 100 µM | MCF7 > 100 µM | MDA-MB-231 > 100 µM | MDA-N > 100 µM | Malme-3M > 100 µM | OVCAR-3 > 100 µM | OVCAR-8 > 100 µM | PC-3 > 100 µM | RPMI-8226 > 100 µM | SF-268 > 100 µM | SF-295 > 100 µM | SK-MEL-28 > 100 µM | SK-MEL-2 > 100 µM | SR > 100 µM

CN1CCOC1c1ccccc1O (configuration not stated)
inactive: A498 > 100 µM | COLO 205 > 100 µM | HOP-92 > 100 µM | IGROV-1 > 100 µM | M14 > 100 µM | MCF7 > 100 µM | MDA-MB-231 > 100 µM | MDA-N > 100 µM | Malme-3M > 100 µM | OVCAR-3 > 100 µM | OVCAR-8 > 100 µM | PC-3 > 100 µM | RPMI-8226 > 100 µM | SF-268 > 100 µM | SF-295 > 100 µM | SK-MEL-2 > 100 µM | SR > 100 µM

C=C(Cl)/C(=C\Br)CCC(Cl)C(C)C.C=C(Cl)/C(=C\Cl)CCC(Cl)C(C)C (configuration not stated)
inactive: A498 20.3 µM | COLO 205 26.3 µM | HCC 2998 18.7 µM | HOP-92 15 µM | IGROV-1 14.7 µM | M14 17.4 µM | MCF7 10.6 µM | MDA-MB-231 16.5 µM | MDA-N 15 µM | Malme-3M 15.1 µM | OVCAR-3 16.5 µM | PC-3 19.8 µM | SF-268 18.6 µM | SF-295 18.8 µM | SK-MEL-28 17.2 µM | SK-MEL-2 13.6 µM | SR 6.53 µM

COCCOCN(C(=O)C1=CCC2(CC1)OCCO2)c1ccccc1I
inactive: A498 > 50 µM | COLO 205 > 50 µM | HCC 2998 > 50 µM | HOP-92 > 50 µM | M14 > 50 µM | MCF7 > 50 µM | MDA-MB-231 > 50 µM | MDA-N > 50 µM | OVCAR-3 > 50 µM | OVCAR-8 > 50 µM | PC-3 > 50 µM | RPMI-8226 > 50 µM | SF-295 > 50 µM | SK-MEL-28 > 50 µM | SK-MEL-2 > 50 µM | SR > 50 µM

CC1OCC2OC(C)OC(C3C4=C(CC(C)(C)CC4=O)OC4=C3C(=O)CC(C)(C)C4)C2O1 (configuration not stated)
inactive: A498 > 100 µM | COLO 205 > 100 µM | HCC 2998 > 100 µM | HOP-92 > 100 µM | M14 > 100 µM | MCF7 > 100 µM | MDA-MB-231 > 100 µM | MDA-N > 100 µM | Malme-3M > 100 µM | OVCAR-3 > 100 µM | OVCAR-8 > 100 µM | PC-3 > 100 µM | RPMI-8226 > 100 µM | SF-268 > 100 µM | SF-295 > 100 µM | SK-MEL-28 > 100 µM | SK-MEL-2 > 100 µM | SR > 100 µM
